Source: paper PMC11683478, “Bioprospecting of culturable marine biofilm bacteria for novel antimicrobial peptides” (iMeta, 2024)
Where a SMILES comes first, the peptide text is derived from it. Where no end group is shown, it is not given here.

What was measured:
[1] = system: human normal colon epithelial cells (NCM-460); type: cell-based; conditions: 48 h
Experimental: Human normal colon epithelial cells (NCM‐460) were purchased from the BeNa Culture Collection. Cytotoxicity was measured using the 3‐[4,5‐dimethylthiazol‐2‐yl]−2,5 diphenyl tetrazolium bromide (MTT) assay. The NCM‐460 cells were cultured in the Dulbecco's modified Eagle's medium (DMEM)‐H complete culture medium (90% DMEM‐H, 10% FBS, 10,000 U/mL penicillin, and 10,000 μg/mL streptomycin) to logarithmic growth phase. The suspension of cells was prepared at 10^5 cells/100 μL/well in a 96‐well plate. The peptides selected for the assay were dissolved in the DMEM‐H medium to prepare a 25 mg/mL stock solution, diluted for multiple gradients of 4–512 μg/mL. Afterwards, the peptides that had been diluted (100 μL/well) were introduced into the cells residing on a 96‐well plate. The DMEM‐H medium served as the blank group, the cell suspension as the control group, and the cell suspension combined with the peptide as the experimental group. Each group was conducted in three separate replicates. After 48 h of culture, 10 μL MTT was added to each well and incubated further at 37°C for 4 h. Then 100 μL Formazan solution was added and incubated further at 37°C for 4 h until all the purple crystals were dissolved. The absorbances were measured at OD570. Cell viability was determined by calculating cell viability using the following formula. Cell viability=OD570(experimental)−OD570(blank)/OD570(control)−OD570(blank)×100%.
Then, the CC50 value of each AMP molecule was calculated using an online tool: https://www.aatbio.com/tools/ic50-calculator.

[2] = system: sheep red blood cells; conditions: red cells of sheep, 1 h
Experimental: Freshly collected sheep blood was centrifuged at 3000 rpm for 10 min, and the supernatant was removed. The pellet was washed and resuspended with normal saline water to produce a 2% blood cell solution. Then, 400 μL of peptide solution was added to 100 μL of 2% blood cell solution to achieve final peptide concentrations of 8, 16, 32, 64, and 128 μg/mL. Normal saline water and Triton X‐100 normal saline solution (2%) were used as negative and positive controls, respectively. The samples were incubated in a water bath at 37°C for 1 h, followed by centrifugation at 3000 rpm for 10 min. Then, 200 μL of the supernatant was transferred to a 96‐well plate, and OD values were measured at a wavelength of 545 nm. The hemolysis rate of each sample was calculated using the following formula: Hemolysis ratio=OD545(experimental)−OD545(negative control)/OD545(positive control)−OD545(negative control)×100%.

[3] = system: eight pathogenic bacterial strains; test: MIC, panel statement; type: cell-based; conditions: panel of eight strains, CAMHB, 37°C
Experimental: Eight bacterial strains were utilized in the antibacterial experiment. S. aureus ATCC 12600, B. subtilis ATCC 23857, E. coli ATCC 11775, and A. baumannii ATCC 19606 were purchased from Shanghai Beinuo Biology. M. luteus ATCC 4698 and S. bongori ATCC43975 were purchased from Shanghai Beisi Biotechnology. V. owensii ems001 and V. alginolyticus xv22 from the intestines of diseased shrimps were isolated in our laboratory. All strains were cultured in the cation‐adjusted Mueller‐Hinton broth (CAMHB) at 37°C to the logarithmic growth phase (OD600 = 0.5). Then, bacteria were gradient‐diluted using fresh CAMHB to a bacterial density of 5 × 10^5 CFU/mL. Antibacterial experiments were performed in a 96‐well plate with 200 μg/mL final peptide concentration. Four experimental groups were set up, including a blank control (200 μL CAMHB), a negative control (180 μL CAMHB plus 20 μL peptide), a positive control (180 μL bacterial culture plus 20 μL ultrapure water), and an experimental group (180 μL bacterial culture plus 20 μL peptide). Three biological replicates were conducted for each group, and OD600 values were measured after incubation at 37°C for 12 h. Every observed value was removed from the blank control group value. […] The MIC of a peptide against a bacterium was determined as the minimum peptide concentration at which there was no visible bacterial growth.

[4] = system: Acinetobacter baumannii ATCC 19606; test: Antibacterial screen at 200 μg/mL (cell density vs control); type: cell-based; conditions: peptide 200 μg/mL, CAMHB, 5 × 10^5 CFU/mL, 37°C, 12 h, OD600; control (no AMP) = 1; three biological replicates
Procedure, shortened: (§1)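 For the MIC, the lowest peptide concentration without visible bacterial growth was recorded. Density screening used log-phase cells diluted to 5 × 10^5 CFU/mL in CAMHB with 200 μg/mL peptide, OD600 measured after 12 h incubation at 37°C.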

[5] = system: Bacillus subtilis ATCC 23857; test: as above; type: cell-based; conditions: peptide 200 μg/mL, CAMHB, 5 × 10^5 CFU/mL, 37°C, 12 h, OD600; control (no AMP) = 1; three biological replicates
Procedure, shortened: as §1

[6] = system: Escherichia coli ATCC 11775; test: as above; type: cell-based; conditions: peptide 200 μg/mL, CAMHB, 5 × 10^5 CFU/mL, 37°C, 12 h, OD600; control (no AMP) = 1; three biological replicates
Procedure, shortened: as §1

[7] = system: Micrococcus luteus ATCC 4698; test: as above; type: cell-based; conditions: peptide 200 μg/mL, CAMHB, 5 × 10^5 CFU/mL, 37°C, 12 h, OD600; control (no AMP) = 1; three biological replicates
Procedure, shortened: as §1

[8] = system: Salmonella bongori ATCC 43975; test: as above; type: cell-based; conditions: peptide 200 μg/mL, CAMHB, 5 × 10^5 CFU/mL, 37°C, 12 h, OD600; control (no AMP) = 1; three biological replicates
Procedure, shortened: as §1

[9] = system: Staphylococcus aureus ATCC 12600; test: as above; type: cell-based; conditions: peptide 200 μg/mL, CAMHB, 5 × 10^5 CFU/mL, 37°C, 12 h, OD600; control (no AMP) = 1; three biological replicates
Procedure, shortened: as §1

[10] = system: Vibrio alginolyticus xv22; test: as above; type: cell-based; conditions: peptide 200 μg/mL, CAMHB, 5 × 10^5 CFU/mL, 37°C, 12 h, OD600; control (no AMP) = 1; three biological replicates
Procedure, shortened: as §1

[11] = system: Vibrio owensii ems001; test: as above; type: cell-based; conditions: peptide 200 μg/mL, CAMHB, 5 × 10^5 CFU/mL, 37°C, 12 h, OD600; control (no AMP) = 1; three biological replicates
Procedure, shortened: as §1

Row | Compound | Cytotoxicity CC50 [1] [µg/mL] | Hemolysis ratio (%) at 8μg/mL [2] [%] | Hemolysis ratio (%) at 16μg/mL [2] [%] | Hemolysis ratio (%) at 32μg/mL [2] [%] | Hemolysis ratio (%) at 128μg/mL [2] [%] | MIC against nearly all strains [3] [µg/mL] | Hemolysis ratio (%) at 64μg/mL [2] [%] | cell density relative to control, A. baumannii ATCC 19606 [4] | cell density relative to control, B. subtilis ATCC 23857 [5] | cell density relative to control, E. coli ATCC 11775 [6] | cell density relative to control, M. luteus ATCC 4698 [7] | cell density relative to control, S. bongori ATCC 43975 [8] | cell density relative to control, S. aureus ATCC 12600 [9] | cell density relative to control, V. alginolyticus xv22 [10] | cell density relative to control, V. owensii ems001 [11]
1 | MRIVMCRIGGRL [Cand-102] | 5.897 | 6.842 | 37.647 | 54.569 | 41.034 |  |  |  |  |  |  |  |  |  | 
2 | MKKCRRKVLFGLWRRN [Cand-77] | 45.263 | 3.431 | 4.302 | 5.822 | 12.471 | ≤ 32 | 8.387 |  |  |  |  |  |  |  | 
3 | CSCC[C@H](N)C(=O)N[C@@H](CCCCN)C(=O)N1CCC[C@H]1C(=O)N[C@@H](CS)C(=O)N[C@@H](CCCNC(=N)N)C(=O)N[C@@H](CCCCN)C(=O)N[C@@H](C)C(=O)N[C@@H](CC(C)C)C(=O)N[C@@H](Cc1c[nH]c2ccccc12)C(=O)N[C@@H](CO)C(=O)N[C@H](C(=O)N[C@@H](Cc1c[nH]c2ccccc12)C(=O)N[C@@H](CCCCN)C(=O)N[C@@H](CCCNC(=N)N)C(=O)N[C@@H](CCCCN)C(=O)N[C@@H](CS)C(=O)N[C@@H](CCCNC(=N)N)C(=O)N[C@@H](Cc1c[nH]cn1)C(=O)N[C@@H](CCC(=O)O)C(=O)O)C(C)C [Cand-196] (H-MKPCRKALWSVWKRKCRHE-OH) | 18.881 | 1.481 | 2.356 | 4.680 | 13.102 |  | 5.976 |  |  |  |  |  |  |  | 
4 | MSRSLRNLLKYVWVKVKGE [Cand-217] | 25.740 | 2.490 | 2.604 | 4.447 |  | ≤ 32 | 9.600 |  |  |  |  |  |  |  | 
5 | MVAVMKKLLLKYALK [Cand-82] | 10.864 | 2.395 | 3.214 | 3.498 |  |  | 2.486 |  |  |  |  |  |  |  | 
6 | MRCSLKKIISTFFS [Cand-71] | 23.841 | 6.779 | 7.213 | 15.000 | 19.534 |  |  |  |  |  |  |  |  |  | 
7 | MRPSMCRIGGRL [Cand-38, chemically synthesized candidate AMP predicted from marine biofilm bacteria] |  |  |  |  |  |  |  | 0.836 | 0.805 | 0.861 | 1 | 1 | 0.771 | 1 | 1
8 | MIYICTRITKCKLHGGCSSVG [Cand-155, chemically synthesized candidate AMP predicted from marine biofilm bacteria] |  |  |  |  |  |  |  | 1 | 0.99 | 1 | 1 | 1 | 0 | 1 | 0.77
9 | MRKGCKLIPCICDVNCRRRTG [Cand-8, chemically synthesized candidate AMP predicted from marine biofilm bacteria] |  |  |  |  |  |  |  | 0.201 | 0.257 | 0 | 0 | 0 | 0.364 | 0.286 | 0.653
10 | MRRFCCCRCSCCCWPS [Cand-25, chemically synthesized candidate AMP predicted from marine biofilm bacteria] |  |  |  |  |  |  |  | 1 | 1 | 0.835 | 1 | 0.847 | 0.422 | 1 | 0.067
11 | MCCVGRGVSFLRTRKCFIKS [Cand-161, chemically synthesized candidate AMP predicted from marine biofilm bacteria] |  |  |  |  |  |  |  | 0.543 | 0 | 0 | 0.788 | 0.12 | 0.001 | 0 | 0
12 | MKGLSKCVTHVVTAA [Cand-115, chemically synthesized candidate AMP predicted from marine biofilm bacteria] |  |  |  |  |  |  |  | 1 | 1 | 1 | 1 | 0.935 | 0.907 | 1 | 0.994
13 | MFKFFCCIFYMCRIKTH [Cand-18, chemically synthesized candidate AMP predicted from marine biofilm bacteria] |  |  |  |  |  |  |  | 0.014 | 0 | 0.004 | 0 | 0.031 | 0 | 0 | 0.007
